Legend:
Klebsiella oxytoca = assay: Expected efficacy of antibiotic agents; settings: expected efficacy against Klebsiella oxytoca
Proteus mirabilis = assay: Expected efficacy of antibiotic agents; settings: expected efficacy against Proteus mirabilis
Enterococcus faecalis = assay: Expected efficacy of antibiotic agents; settings: expected efficacy against Enterococcus faecalis
Providencia rettgeri = assay: Expected efficacy of antibiotic agents; settings: expected efficacy against Providencia rettgeri
Corynebacterium jeikeium = assay: Expected efficacy of antibiotic agents; settings: expected efficacy against Corynebacterium jeikeium
Clostridium perfringens = settings: expected efficacy against Clostridium perfringens
Morganella morganii = assay: Expected efficacy of antibiotic agents; settings: expected efficacy against Morganella morganii
Acinetobacter lwoffii = assay: Expected efficacy of antibiotic agents; settings: expected efficacy against Acinetobacter lwoffii
Enterobacter sakazakii = assay: Expected efficacy of antibiotic agents; settings: expected efficacy against Enterobacter sakazakii
Bordetella pertussis = assay: Expected efficacy of antibiotic agents; settings: expected efficacy against Bordetella pertussis
Rickettsiae = settings: expected efficacy against Rickettsiae
Enterobacter aerogenes = assay: Expected efficacy of antibiotic agents; settings: expected efficacy against Enterobacter aerogenes
Chlamydia psittaci = settings: expected efficacy against Chlamydia psittaci
Francisella tularensis = settings: expected efficacy against Francisella tularensis
Serratia marcescens = assay: Expected efficacy of antibiotic agents; settings: expected efficacy against Serratia marcescens
Chlamydia pneumoniae = assay: Expected efficacy of antibiotic agents; settings: expected efficacy against Chlamydia pneumoniae
Peptostreptococcus = assay: Expected efficacy of antibiotic agents; settings: expected efficacy against Peptostreptococcus
Escherichia coli = assay: Expected efficacy of antibiotic agents; settings: expected efficacy against Escherichia coli
Citrobacter freundii = assay: Expected efficacy of antibiotic agents; settings: expected efficacy against Citrobacter freundii
[1] = tested on: Acinetobacter calcoaceticus; assay: Expected efficacy of antibiotic agents; settings: expected efficacy against Acinetobacter calcoaceticus
Shigella flexneri = assay: Expected efficacy of antibiotic agents; settings: expected efficacy against Shigella flexneri
[2] = tested on: Methicillin resistant staph aureus (MRSA); assay: Expected efficacy of antibiotic agents; settings: expected efficacy against Methicillin resistant staph aureus (MRSA)
Moraxella catarrhalis = assay: Expected efficacy of antibiotic agents; settings: expected efficacy against Moraxella catarrhalis
[3] = tested on: Viridans group streptococci; assay: Expected efficacy of antibiotic agents; settings: expected efficacy against Viridans group streptococci
Mycoplasma pneumoniae = assay: Expected efficacy of antibiotic agents; settings: expected efficacy against Mycoplasma pneumoniae
Chlamydia trachomatis = assay: Expected efficacy of antibiotic agents; settings: expected efficacy against Chlamydia trachomatis
Neisseria gonorrhoeae = assay: Expected efficacy of antibiotic agents; settings: expected efficacy against Neisseria gonorrhoeae
Neisseria meningitidis = assay: Expected efficacy of antibiotic agents; settings: expected efficacy against Neisseria meningitidis
Streptococcus pyogenes = assay: Expected efficacy of antibiotic agents; settings: expected efficacy against Streptococcus pyogenes
Citrobacter diversus = assay: Expected efficacy of antibiotic agents; settings: expected efficacy against Citrobacter diversus
Haemophilus influenzae = assay: Expected efficacy of antibiotic agents; settings: expected efficacy against Haemophilus influenzae
Shigella dysenteriae = assay: Expected efficacy of antibiotic agents; settings: expected efficacy against Shigella dysenteriae
[4] = tested on: Staphylococcus aureus (MSSA); assay: Expected efficacy of antibiotic agents; settings: expected efficacy against Staphylococcus aureus (MSSA)
Shigella sonnei = assay: Expected efficacy of antibiotic agents; settings: expected efficacy against Shigella sonnei
[5] = tested on: Klebsiella (Calymmatobacterium) granulomatis; assay: Expected efficacy of antibiotic agents; settings: expected efficacy against Klebsiella (Calymmatobacterium) granulomatis
Streptococcus pneumoniae = assay: Expected efficacy of antibiotic agents; settings: expected efficacy against Streptococcus pneumoniae
[6] = tested on: Haemophilus parainfluenzae; assay: Expected efficacy of antibiotic agents; settings: expected efficacy against Haemophilus parainfluenzae
Clostridium difficile = assay: Expected efficacy of antibiotic agents; settings: expected efficacy against Clostridium difficile
Legionella pneumophila = settings: expected efficacy against Legionella pneumophila
Streptococcus agalactiae = assay: Expected efficacy of antibiotic agents; settings: expected efficacy against Streptococcus agalactiae
Enterococcus faecium = assay: Expected efficacy of antibiotic agents; settings: expected efficacy against Enterococcus faecium
Proteus vulgaris = assay: Expected efficacy of antibiotic agents; settings: expected efficacy against Proteus vulgaris
Yersinia pestis = settings: expected efficacy against Yersinia pestis
Salmonella typhi = assay: Expected efficacy of antibiotic agents; settings: expected efficacy against Salmonella typhi
Enterobacter cloacae = assay: Expected efficacy of antibiotic agents; settings: expected efficacy against Enterobacter cloacae
Klebsiella pneumoniae = assay: Expected efficacy of antibiotic agents; settings: expected efficacy against Klebsiella pneumoniae
Providencia stuartii = assay: Expected efficacy of antibiotic agents; settings: expected efficacy against Providencia stuartii
Diphtheroids = assay: Expected efficacy of antibiotic agents; settings: expected efficacy against Diphtheroids
Bacteroides fragilis = assay: Expected efficacy of antibiotic agents; settings: expected efficacy against Bacteroides fragilis
[7] = tested on: Corynebacterium urealyticum; assay: Expected efficacy of antibiotic agents; settings: expected efficacy against Corynebacterium urealyticum
Campylobacter jejuni = assay: Expected efficacy of antibiotic agents; settings: expected efficacy against Campylobacter jejuni
Haemophilus ducreyi = assay: Expected efficacy of antibiotic agents; settings: expected efficacy against Haemophilus ducreyi
[8] = tested on: Staphylococcus epidermidis; assay: Expected efficacy of antibiotic agents; settings: expected efficacy against Staphylococcus epidermidis
Vibrio cholerae = assay: Expected efficacy of antibiotic agents; settings: expected efficacy against Vibrio cholerae
Acinetobacter baumannii = assay: Expected efficacy of antibiotic agents; settings: expected efficacy against Acinetobacter baumannii
Shigella boydii = assay: Expected efficacy of antibiotic agents; settings: expected efficacy against Shigella boydii
Pseudomonas aeruginosa = assay: Expected efficacy of antibiotic agents; settings: expected efficacy against Pseudomonas aeruginosa
Pseudomonas fluorescens = assay: Expected efficacy of antibiotic agents; settings: expected efficacy against Pseudomonas fluorescens
Brucella species = settings: expected efficacy against Brucella species

## CO/N=C(\C(=O)N[C@@H]1C(=O)N2C(C(=O)O)=C(CSc3nc(=O)c(=O)[nH]n3C)CS[C@H]12)c1csc(N)n1 [Ceftriaxone, ceftriaxone]
Klebsiella oxytoca
  Efficacy: yes
Proteus mirabilis
  Efficacy: yes
Enterococcus faecalis
  Efficacy: no
Providencia rettgeri
  Efficacy: yes
Corynebacterium jeikeium
  Efficacy: no
Clostridium perfringens
  Efficacy: yes
Morganella morganii
  Efficacy: yes
Acinetobacter lwoffii
  Efficacy: no
Enterobacter sakazakii
  Efficacy: yes
Bordetella pertussis
  Efficacy: no
Rickettsiae
  Efficacy: no
Enterobacter aerogenes
  Efficacy: yes
Chlamydia psittaci
  Efficacy: no
Francisella tularensis
  Efficacy: no
Serratia marcescens
  Efficacy: yes
Chlamydia pneumoniae
  Efficacy: no
Peptostreptococcus
  Efficacy: yes
Escherichia coli
  Efficacy: yes
Citrobacter freundii
  Efficacy: yes
[1]
  Efficacy: no
Shigella flexneri
  Efficacy: yes
[2]
  Efficacy: no
Moraxella catarrhalis
  Efficacy: yes
[3]
  Efficacy: yes
Mycoplasma pneumoniae
  Efficacy: no
Chlamydia trachomatis
  Efficacy: no
Neisseria gonorrhoeae
  Efficacy: yes
Neisseria meningitidis
  Efficacy: yes
Streptococcus pyogenes
  Efficacy: yes
Citrobacter diversus
  Efficacy: yes
Haemophilus influenzae
  Efficacy: yes
Shigella dysenteriae
  Efficacy: yes
[4]
  Efficacy: yes
Shigella sonnei
  Efficacy: yes
[5]
  Efficacy: yes
Streptococcus pneumoniae
  Efficacy: yes
[6]
  Efficacy: yes
Clostridium difficile
  Efficacy: no
Legionella pneumophila
  Efficacy: no
Streptococcus agalactiae
  Efficacy: yes
Enterococcus faecium
  Efficacy: no
Proteus vulgaris
  Efficacy: yes
Yersinia pestis
  Efficacy: no
Salmonella typhi
  Efficacy: yes
Enterobacter cloacae
  Efficacy: yes
Klebsiella pneumoniae
  Efficacy: yes
Providencia stuartii
  Efficacy: yes
Diphtheroids
  Efficacy: no
Bacteroides fragilis
  Efficacy: yes
[7]
  Efficacy: no
Campylobacter jejuni
  Efficacy: no
Haemophilus ducreyi
  Efficacy: yes
[8]
  Efficacy: yes
Vibrio cholerae
  Efficacy: no
Acinetobacter baumannii
  Efficacy: no
Shigella boydii
  Efficacy: yes
Pseudomonas aeruginosa
  Efficacy: no

## NC[C@H]1O[C@H](O[C@H]2[C@H](O)[C@@H](O[C@H]3O[C@H](CO)[C@@H](O)[C@H](N)[C@H]3O)[C@H](N)C[C@@H]2N)[C@H](N)C[C@@H]1O [Tobramycin, tobramycin]
Klebsiella oxytoca
  Efficacy: yes
Proteus mirabilis
  Efficacy: yes
Enterococcus faecalis
  Efficacy: no
Corynebacterium jeikeium
  Efficacy: no
Pseudomonas fluorescens
  Efficacy: yes
Clostridium perfringens
  Efficacy: no
Acinetobacter lwoffii
  Efficacy: no
Enterobacter sakazakii
  Efficacy: yes
Bordetella pertussis
  Efficacy: no
Enterobacter aerogenes
  Efficacy: yes
Chlamydia psittaci
  Efficacy: no
Serratia marcescens
  Efficacy: yes
Chlamydia pneumoniae
  Efficacy: no
Peptostreptococcus
  Efficacy: no
Escherichia coli
  Efficacy: yes
Citrobacter freundii
  Efficacy: yes
[1]
  Efficacy: no
Shigella flexneri
  Efficacy: yes
[2]
  Efficacy: no
Moraxella catarrhalis
  Efficacy: yes
[3]
  Efficacy: no
Mycoplasma pneumoniae
  Efficacy: no
Chlamydia trachomatis
  Efficacy: no
Neisseria gonorrhoeae
  Efficacy: no
Neisseria meningitidis
  Efficacy: no
Streptococcus pyogenes
  Efficacy: no
Citrobacter diversus
  Efficacy: yes
Haemophilus influenzae
  Efficacy: yes
Shigella dysenteriae
  Efficacy: yes
[4]
  Efficacy: no
Shigella sonnei
  Efficacy: yes
[5]
  Efficacy: yes
Streptococcus pneumoniae
  Efficacy: no
Clostridium difficile
  Efficacy: no
Legionella pneumophila
  Efficacy: no
Streptococcus agalactiae
  Efficacy: no
Enterococcus faecium
  Efficacy: no
Proteus vulgaris
  Efficacy: yes
Yersinia pestis
  Efficacy: yes
Enterobacter cloacae
  Efficacy: yes
Klebsiella pneumoniae
  Efficacy: yes
Diphtheroids
  Efficacy: no
Bacteroides fragilis
  Efficacy: no
[7]
  Efficacy: no
Campylobacter jejuni
  Efficacy: yes
Haemophilus ducreyi
  Efficacy: yes
[8]
  Efficacy: no
Vibrio cholerae
  Efficacy: no
Acinetobacter baumannii
  Efficacy: no
Shigella boydii
  Efficacy: yes
Pseudomonas aeruginosa
  Efficacy: yes

## Colistimethate
Klebsiella oxytoca
  Efficacy: yes
Proteus mirabilis
  Efficacy: no
Enterococcus faecalis
  Efficacy: no
Providencia rettgeri
  Efficacy: no
Corynebacterium jeikeium
  Efficacy: no
Pseudomonas fluorescens
  Efficacy: yes
Enterobacter sakazakii
  Efficacy: yes
Bordetella pertussis
  Efficacy: no
Enterobacter aerogenes
  Efficacy: yes
Chlamydia psittaci
  Efficacy: no
Serratia marcescens
  Efficacy: no
Chlamydia pneumoniae
  Efficacy: no
Peptostreptococcus
  Efficacy: no
Escherichia coli
  Efficacy: yes
[2]
  Efficacy: no
Moraxella catarrhalis
  Efficacy: no
[3]
  Efficacy: no
Mycoplasma pneumoniae
  Efficacy: no
Chlamydia trachomatis
  Efficacy: no
Neisseria gonorrhoeae
  Efficacy: no
Neisseria meningitidis
  Efficacy: no
Streptococcus pyogenes
  Efficacy: no
[4]
  Efficacy: no
[5]
  Efficacy: yes
Streptococcus pneumoniae
  Efficacy: no
[6]
  Efficacy: no
Clostridium difficile
  Efficacy: no
Legionella pneumophila
  Efficacy: no
Streptococcus agalactiae
  Efficacy: no
Enterococcus faecium
  Efficacy: no
Proteus vulgaris
  Efficacy: no
Enterobacter cloacae
  Efficacy: yes
Klebsiella pneumoniae
  Efficacy: yes
Providencia stuartii
  Efficacy: no
Diphtheroids
  Efficacy: no
Bacteroides fragilis
  Efficacy: no
[7]
  Efficacy: no
Brucella species
  Efficacy: no
[8]
  Efficacy: no
Vibrio cholerae
  Efficacy: no
Pseudomonas aeruginosa
  Efficacy: yes

— patent US20170173002A1, “Compositions and Methods for Treating an Infection” (CMPD LICENSING, LLC, priority 2015, published 2017)
